In patent US7778782B1, “Peroxisome proliferation activated receptor alpha (PPARα) signatures” (priority 2002, dated 2010):
Marks after values point to notes of the source that are not given here.

Tested on: PPARα response signature
Assay: Signature Projection Score (SPS) of liver gene expression against the PPARα response signature
Type: in vivo, male Sprague-Dawley rats
Protocol: Compound dosing was based on the acute dose LD50s recorded in published reference or literature sources. Duplicate rats were dosed at each of 3 doses: at LD50, one-half and one-fourth of LD50. The MTD (maximum tolerated dose) was then selected as the dose at which the animals […] 5-10% body weight during the 5-day range finding study. […] In addition, the clinical observations must show no or mild clinical signs during the whole of the range-finding study. At the next highest dose, signs and symptoms of adverse effects and exceeding those of the MTD should be seen to occur. Should these criteria not be met, the range-finding study is repeated using a modified dose range.
After determination of the MTD and FED for a compound, each compound was dissolved in a vehicle for administration on day 1 of the study (additional daily doses were stored as frozen aliquots from this initial formulation). Each compound was administered to three individual male Sprague-Dawley rats for each of the two doses (MTD and FED) for one of four different times (0.25 day, 1 day, 3 days, and 5 or 7 days), yielding a total of up to 24 animals per compound study. Vehicle choice was based on solubility of the compound, effect of food on adsorption, and the vehicles used in the literature reports examined during the FED selection investigations, described above. Generally, the route and vehicle in which the FED was defined are used. When there was a choice of routes and vehicles, oral routes were chosen over injection routes. Many compounds, especially oncolytics, are only administerable intravenously. In such cases, the compound was administered as an intravenous formulation into the tail vein. Orally administered compounds were given dissolved in either water, 1% carboxymethycellulose (CMC) or corn oil. Intravenously and intraperitoneally administered compounds were given in 0.9% saline. Subcutaneously administered compounds were given in corn oil. Animal body weights were determined at 1 day and, where appropriate, at 4 days, before necropsy, and clinical observations were made on a daily basis. Control animals were dosed with vehicle only. Three male animals were used for each dose and time combination used for the compound treatment.
Tissue harvest and handling: After the allocated treatment time, the tissues from the animals were harvested. […] All the tissues collected were divided to provide samples for histopathological analyses, and the remainder of each tissue was then snap-frozen. […] The parameters were measured using a Hitachi-911 clinical chemistry analysis instrument according to the manufacturer's instructions. The following blood constituents were measured: Blood Urea Nitrogen (BUN), Creatinine (CRE), Glucose (GLU), Alanine Transaminase (ALT), Aspartate Aminotransferase (AST), Alkaline Phosphatase (ALP), Total Bilirubin (TBI), Sodium (SOD), Potassium (POT), Chloride (CHL), Phosphorus (PHO), Total Protein (TPR), Albumin (ALB), Cholesterol (CHO), Creatine Phosphokinase (CPK), Lactate Dehydrogenase (LDH), Carbon Dioxide (CO2), Uric Acid (UA), and Lipase. […] The parameters were measured using a Baker 9000 blood cell analysis instrument according to the manufactures instructions. The following blood constituents were measured: Leukocyte count (WBC), Differential Leukocyte counts, Erythrocyte count (RBC), Hemoglobin concentration (HGB), Hematocrit (HCT), Mean Corpuscular Volume (MCV), Mean Corpuscular Hemoglobin (MCH), Mean Corpuscular Hemoglobin Concentration (MCC), Thrombocyte Count (PLC). Histopathology: Histopathological analyses of hematoxylin and eosin-stained tissue sections were performed and peer-reviewed by board-certified (Diplomate, American College of Veterinary Pathologists) veterinary pathologists.

[1] = rat liver expression data in DrugMatrix database compared with PPARα response signature, normalised so highest training treatment = 100, *= p < 0.01, **= p < 0.001
[2] = rat liver gene expression, in words

CC1=C(CC(=O)O)c2cc(F)ccc2/C1=C\c1ccc([S+](C)[O-])cc1 (centres unmarked)
SPS (Sequence Projection Score) [1]: 4

C[C@]12CCC(=O)C=C1CC[C@@H]1[C@@H]2CC[C@@]2(C)[C@H]1CC[C@]2(C)O [17-METHYLTESTOSTERONE]
SPS (Sequence Projection Score) [1]: 5

CC(C)c1c(C(=O)Nc2ccccc2)c(-c2ccccc2)c(-c2ccc(F)cc2)n1CC[C@@H](O)C[C@@H](O)CC(=O)O [ATORVASTATIN]
SPS (Sequence Projection Score) [1]: 22* | similarity to the PPARα response signature [2]: significantly similar to the signature

Cn1cnc([N+](=O)[O-])c1Sc1ncnc2nc[nH]c12 [AZATHIOPRINE]
SPS (Sequence Projection Score) [1]: 7

C[C@]12CC[C@@H]3c4ccc(O)cc4CC[C@H]3[C@@H]1CC[C@@H]2O [BETA-ESTRADIOL]
SPS (Sequence Projection Score) [1]: 11

CC(C)(Oc1ccc(CCNC(=O)c2ccc(Cl)cc2)cc1)C(=O)O [BEZAFIBRATE, 2-(4-(2-((4-chlorobenzoyl)amino)ethyl)phenoxy)-2-methylpropanoic acid]
SPS (Signature Projection Score) [1]: 102**

CCCCC(CC)COC(=O)c1ccccc1C(=O)OCC(CC)CCCC (centres unmarked) [BIS-2-ETHYLHEXYL PHTHALATE]
SPS (Sequence Projection Score) [1]: 68** | similarity to the PPARα response signature [2]: significantly similar to the signature

Oc1c(Cl)cc(Cl)cc1Sc1cc(Cl)cc(Cl)c1O [BITHIONOL]
SPS (Sequence Projection Score) [1]: 20

COCc1c(C(C)C)nc(C(C)C)c(/C=C/[C@@H](O)C[C@@H](O)CC(=O)O)c1-c1ccc(F)cc1 [CERIVASTATIN]
SPS (Sequence Projection Score) [1]: 15

O=C(O)CCCc1ccc(N(CCCl)CCCl)cc1 [CHLORAMBUCIL]
SPS (Signature Projection Score) [1]: 8

N.N.[Cl][Pt][Cl] [CISPLATIN]
SPS (Sequence Projection Score) [1]: 9

CCOC(=O)C(C)(C)Oc1ccc(Cl)cc1 [CLOFIBRATE, 2-(p-chlorophenoxy)-2-methylpropionic acid ethyl ester]
SPS (Sequence Projection Score) [1]: 99**

Clc1ccccc1C(c1ccccc1)(c1ccccc1)n1ccnc1 [CLOTRIMAZOLE]
SPS (Sequence Projection Score) [1]: 4

CC(=O)O[C@]1(C(C)=O)CC[C@H]2[C@@H]3C=C(Cl)C4=CC(=O)[C@@H]5C[C@@H]5[C@]4(C)[C@H]3CC[C@@]21C [CYPROTERONE ACETATE]
SPS (Sequence Projection Score) [1]: 5

C[C@@H]1C[C@H]2[C@@H]3CCC4=CC(=O)C=C[C@]4(C)[C@@]3(F)[C@@H](O)C[C@]2(C)[C@@]1(O)C(=O)CO [DEXAMETHASONE]
SPS (Sequence Projection Score) [1]: 9

C#C[C@]1(O)CC[C@H]2[C@@H]3CCc4cc(O)ccc4[C@H]3CC[C@@]21C [ETHINYLESTRADIOL]
SPS (Sequence Projection Score) [1]: 19

OC(Cn1cncn1)(Cn1cncn1)c1ccc(F)cc1F [FLUCONAZOLE]
SPS (Sequence Projection Score) [1]: 4

CC(C)n1c(/C=C/C(O)CC(O)CC(=O)O)c(-c2ccc(F)cc2)c2ccccc21 (centres unmarked) [FLUVASTATIN]
SPS (Signature Projection Score) (rat, in vivo): 35*

Cc1ccc(C)c(OCCCC(C)(C)C(=O)O)c1 [GEMFIBROZIL, 5-(2,5-dimethylphenoxy)-2,2-dimethylpentanoic acid]
SPS (Sequence Projection Score) [1]: 65*

O=P1(NCCCl)OCCCN1CCCl (centres unmarked) [IFOSFAMIDE]
SPS (Sequence Projection Score) [1]: 9

CC(=O)N1CCN(c2ccc(OCC3COC(Cn4ccnc4)(c4ccc(Cl)cc4Cl)O3)cc2)CC1 (centres unmarked) [KETOCONAZOLE]
SPS (Sequence Projection Score) [1]: 6

Cc1oncc1C(=O)Nc1ccc(C(F)(F)F)cc1 [LEFLUNOMIDE]
SPS (Sequence Projection Score) [1]: 5

CC[C@H](C)C(=O)O[C@H]1C[C@@H](C)C=C2C=C[C@H](C)[C@H](CC[C@@H]3C[C@@H](O)CC(=O)O3)[C@H]21 [LOVASTATIN]
SPS (Signature Projection Score) (rat, in vivo): 45* | similarity to the PPARα response signature (rat, in vivo): significantly similar to the signature

CC#C[C@]1(O)CC[C@H]2[C@@H]3CCC4=CC(=O)CCC4=C3[C@@H](c3ccc(N(C)C)cc3)C[C@@]21C [MIFEPRISTONE]
SPS (Sequence Projection Score) [1]: 7

CN(C)C=O [N,N-DIMETHYLFORMAMIDE]
SPS (Sequence Projection Score) [1]: 5

C#C[C@]1(OC(C)=O)CC[C@H]2[C@@H]3CCC4=CC(=O)CC[C@@H]4[C@H]3CC[C@@]21C [NORETHINDRONE ACETATE]
SPS (Sequence Projection Score) [1]: 5

c1ccc2c(c1)Nc1ccccc1S2 [PHENOTHIAZINE]
SPS (Sequence Projection Score) [1]: 23*

CC(=O)[C@H]1CC[C@H]2[C@@H]3CCC4=CC(=O)CC[C@]4(C)[C@H]3CC[C@]12C [PROGESTERONE]
SPS (Sequence Projection Score) [1]: 5

O=C(c1ccc(OCCN2CCCCC2)cc1)c1c(-c2ccc(O)cc2)sc2cc(O)ccc12 [RALOXIFENE]
SPS (Sequence Projection Score) [1]: 44*
